{
  "source": "patent US8574563B2",
  "about": "(Bristol-Myers Squibb Company, priority 2006, dated 2013)",
  "system": "HCV 1b-377-neo replicon cells",
  "test": "HCV replicon assay, HCV 1b-377-neo replicon cells (1b FRET)",
  "type": "cell-based, Hepatitis C virus genotype 1b",
  "conditions": "Hepatitis C virus, HCV 1b-377-neo replicon cells; HCV 1b genotype; read-out: EC50 range against HCV 1b (Table 2, Range)",
  "summary_of_the_method": "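Compounds tested in HCV genotype 1b-377-neo replicon cells with a FRET read-out. Cells resistant to a reference NS5A inhibitor through a Y2065H NS5A mutation were run alongside wild-type cells.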",
  "data": [
    {"smiles": "COC(=O)N[C@H](C(=O)N1CCC[C@H]1c1ncc(-c2ccc(-c3ccc(-c4cnc([C@@H]5CCCN5C(=O)CNC(C)C)[nH]4)cc3)cc2)[nH]1)C(C)C", "note": "[LS25, methyl ((1S)-1-(((2S)-2-(5-(4′-(2-((2S)-1-(N-isopropylglycyl)-2-pyrrolidinyl)-1H-imidazol-5-yl)-4-biphenylyl)-1H-imidazol-2-yl)-1-pyrrolidinyl)carbonyl)-2-methylpropyl)carbamate]", "values": [
      {"measurement": "EC50", "result": "1 to 999", "unit": "pM"}
    ]},
    {"smiles": "COC(=O)N[C@H](C(=O)N1CCC[C@H]1c1ncc(-c2ccc(-c3ccc(-c4cnc([C@@H]5CCCN5C(=O)CN(C(C)C)C(C)C)[nH]4)cc3)cc2)[nH]1)C(C)C", "note": "[LS26, methyl ((1S)-1-(((2S)-2-(5-(4′-(2-((2S)-1-(N,N-diisopropylglycyl)-2-pyrrolidinyl)-1H-imidazol-5-yl)-4-biphenylyl)-1H-imidazol-2-yl)-1-pyrrolidinyl)carbonyl)-2-methylpropyl)carbamate]", "values": [
      {"measurement": "EC50", "result": "1 to 999", "unit": "pM"}
    ]},
    {"smiles": "COC(=O)N[C@H](C(=O)N1CCC[C@H]1c1ncc(-c2ccc(-c3ccc(-c4cnc([C@]5(C)CCCN5C(=O)[C@@H](NC(=O)OC)C(C)C)[nH]4)cc3)cc2)[nH]1)C(C)C", "note": "[LS36, methyl ((1S)-1-(((2S)-2-(5-(4′-(2-((2S)-1-((2S)-2-((methoxycarbonyl)amino)-3-methylbutanoyl)-2-pyrrolidinyl)-1H-imidazol-5-yl)-4-biphenylyl)-1H-imidazol-2-yl)-2-methyl-1-pyrrolidinyl)carbonyl)-2-methylpropyl)carbamate]", "values": [
      {"measurement": "EC50", "result": "1 to 999", "unit": "pM"}
    ]},
    {"smiles": "CC(C)[C@H](NC(=O)N(C)C)C(=O)N1CCC[C@H]1c1ncc(-c2ccc(-c3ccc(-c4cnc([C@@H]5CCCN5C(=O)[C@@H](NC(=O)N(C)C)C(C)C)[nH]4)cc3)cc2)[nH]1", "note": "[OL-1, 3-((1S)-1-(((2S)-2-(4-(4′-(2-((2S)-1-((2S)-2-((dimethylcarbamoyl)amino)-3-methylbutanoyl)-2-pyrrolidinyl)-1H-imidazol-4-yl)-4-biphenylyl)-1H-imidazol-2-yl)-1-pyrrolidinyl)carbonyl)-2-methylpropyl)-1,1-dimethylurea]", "values": [
      {"measurement": "EC50", "result": "1 to 999", "unit": "pM"}
    ]},
    {"smiles": "C[C@H](NC(=O)N(C)C)C(=O)N1CCC[C@H]1c1ncc(-c2ccc(-c3ccc(-c4cnc([C@@H]5CCCN5C(=O)[C@H](C)NC(=O)N(C)C)[nH]4)cc3)cc2)[nH]1", "note": "[OL-2, 3-((1S)-2-((2S)-2-(4-(4′-(2-((2S)-1-(N-(dimethylcarbamoyl)-L-alanyl)-2-pyrrolidinyl)-1H-imidazol-4-yl)-4-biphenylyl)-1H-imidazol-2-yl)-1-pyrrolidinyl)-1-methyl-2-oxoethyl)-1,1-dimethylurea]", "values": [
      {"measurement": "EC50", "result": "1 to 999", "unit": "pM"}
    ]},
    {"smiles": "CC(C)[C@H](NC(=O)OCCF)C(=O)N1CCC[C@H]1c1ncc(-c2ccc(-c3ccc(-c4cnc([C@@H]5CCCN5C(=O)[C@@H](NC(=O)OCCF)C(C)C)[nH]4)cc3)cc2)[nH]1", "note": "[OL-3, 2-fluoroethyl ((1S)-1-(((2S)-2-(4-(4′-(2-((2S)-1-((2S)-2-(((2-fluoroethoxy)carbonyl)amino)-3-methylbutanoyl)-2-pyrrolidinyl)-1H-imidazol-4-yl)-4-biphenylyl)-1H-imidazol-2-yl)-1-pyrrolidinyl)carbonyl)-2-methylpropyl)carbamate]", "values": [
      {"measurement": "EC50", "result": "1000 to 99000", "unit": "pM"}
    ]},
    {"smiles": "CCC(CC)[C@H](NC(=O)OC)C(=O)N1CCC[C@H]1c1ncc(-c2ccc(-c3ccc(-c4cnc([C@@H]5CCCN5C(=O)[C@@H](NC(=O)OC)C(CC)CC)[nH]4)cc3)cc2)[nH]1", "note": "[OL-4, methyl ((1S)-2-ethyl-1-(((2S)-2-(4-(4′-(2-((2S)-1-((2S)-3-ethyl-2-((methoxycarbonyl)amino)pentanoyl)-2-pyrrolidinyl)-1H-imidazol-4-yl)-4-biphenylyl)-1H-imidazol-2-yl)-1-pyrrolidinyl)carbonyl)butyl)carbamate]", "values": [
      {"measurement": "EC50", "result": "1 to 999", "unit": "pM"}
    ]},
    {"smiles": "CC(C)[C@@H](C(=O)N1CCC[C@H]1c1ncc(-c2ccc(-c3ccc(-c4cnc([C@@H]5CCCN5C(=O)[C@H](C(C)C)N5CCCNC5=O)[nH]4)cc3)cc2)[nH]1)N1CCCNC1=O", "note": "[OL-5, 1,1′-(4,4′-biphenyldiylbis(1H-imidazole-4,2-diyl(2S)-2,1-pyrrolidinediyl((2S)-3-methyl-1-oxo-1,2-butanediyl)))ditetrahydro-2(1H)-pyrimidinone]", "values": [
      {"measurement": "EC50", "result": "1 to 999", "unit": "pM"}
    ]},
    {"smiles": "COC(=O)N[C@@H](CC(C)C)C(=O)N1CCC[C@H]1c1ncc(-c2ccc(-c3ccc(-c4cnc([C@@H]5CCCN5C(=O)[C@H](CC(C)C)NC(=O)OC)[nH]4)cc3)cc2)[nH]1", "note": "[OL-6, methyl ((1S)-1-(((2S)-2-(4-(4′-(2-((2S)-1-((2S)-2-((methoxycarbonyl)amino)-4-methylpentanoyl)-2-pyrrolidinyl)-1H-imidazol-4-yl)-4-biphenylyl)-1H-imidazol-2-yl)-1-pyrrolidinyl)carbonyl)-3-methylbutyl)carbamate]", "values": [
      {"measurement": "EC50", "result": "1 to 999", "unit": "pM"}
    ]},
    {"smiles": "COC(=O)N[C@H](C(=O)N1CC(F)(F)C[C@H]1c1ncc(-c2ccc(-c3ccc(-c4cnc([C@@H]5CC(F)(F)CN5C(=O)[C@@H](NC(=O)OC)C(C)C)[nH]4)cc3)cc2)[nH]1)C(C)C", "note": "[OL-7, methyl ((1S)-1-(((2S)-2-(4-(4′-(2-((2S)-4,4-difluoro-1-((2S)-2-((methoxycarbonyl)amino)-3-methylbutanoyl)-2-pyrrolidinyl)-1H-imidazol-4-yl)-4-biphenylyl)-1H-imidazol-2-yl)-4,4-difluoro-1-pyrrolidinyl)carbonyl)-2-methylpropyl)carbamate]", "values": [
      {"measurement": "EC50", "result": "1 to 999", "unit": "pM"}
    ]},
    {"smiles": "CN(C)[C@@H](C(=O)N1CC(F)(F)C[C@H]1c1ncc(-c2ccc(-c3ccc(-c4cnc([C@@H]5CC(F)(F)CN5C(=O)[C@@H](c5ccccc5)N(C)C)[nH]4)cc3)cc2)[nH]1)c1ccccc1", "note": "[OL-8, (1R,1′R)-2,2′-(4,4′-biphenyldiylbis(1H-imidazole-4,2-diyl((2S)-4,4-difluoro-2,1-pyrrolidinediyl)))bis(N,N-dimethyl-2-oxo-1-phenylethanamine)]", "values": [
      {"measurement": "EC50", "result": "1 to 999", "unit": "pM"}
    ]},
    {"smiles": "CCN(CC)[C@@H](C(=O)N1CC(F)(F)C[C@H]1c1ncc(-c2ccc(-c3ccc(-c4cnc([C@@H]5CC(F)(F)CN5C(=O)[C@@H](c5ccccc5)N(CC)CC)[nH]4)cc3)cc2)[nH]1)c1ccccc1", "note": "[OL-9, (1R,1′R)-2,2′-(4,4′-biphenyldiylbis(1H-imidazole-4,2-diyl((2S)-4,4-difluoro-2,1-pyrrolidinediyl)))bis(N,N-diethyl-2-oxo-1-phenylethanamine)]", "values": [
      {"measurement": "EC50", "result": "1 to 999", "unit": "pM"}
    ]},
    {"smiles": "COC(=O)N[C@H](C(=O)N1CC(F)(F)C[C@H]1c1ncc(-c2ccc(-c3ccc(-c4cnc([C@@H]5CC(F)(F)CN5C(=O)[C@@H](NC(=O)OC)[C@@H](C)OC)[nH]4)cc3)cc2)[nH]1)[C@@H](C)OC", "note": "[OL-10, methyl ((1S,2R)-1-(((2S)-2-(4-(4′-(2-((2S)-4,4-difluoro-1-(N-(methoxycarbonyl)-O-methyl-L-threonyl)-2-pyrrolidinyl)-1H-imidazol-4-yl)-4-biphenylyl)-1H-imidazol-2-yl)-4,4-difluoro-1-pyrrolidinyl)carbonyl)-2-methoxypropyl)carbamate]", "values": [
      {"measurement": "EC50", "result": "1 to 999", "unit": "pM"}
    ]},
    {"smiles": "COC(=O)N[C@@H](C)C(=O)N1CC(F)(F)C[C@H]1c1ncc(-c2ccc(-c3ccc(-c4cnc([C@@H]5CC(F)(F)CN5C(=O)[C@H](C)NC(=O)OC)[nH]4)cc3)cc2)[nH]1", "note": "[OL-11, methyl ((1S)-2-((2S)-2-(4-(4′-(2-((2S)-4,4-difluoro-1-(N-(methoxycarbonyl)-L-alanyl)-2-pyrrolidinyl)-1H-imidazol-4-yl)-4-biphenylyl)-1H-imidazol-2-yl)-4,4-difluoro-1-pyrrolidinyl)-1-methyl-2-oxoethyl)carbamate]", "values": [
      {"measurement": "EC50", "result": "1 to 999", "unit": "pM"}
    ]},
    {"smiles": "COC(=O)N[C@H](C(=O)N1CCC[C@H]1c1ncc(-c2ccc(-c3ccc(-c4cnc([C@@H]5CC(F)(F)CN5C(=O)[C@@H](NC(=O)OC)C(C)C)[nH]4)cc3)cc2)[nH]1)C(C)C", "note": "[OL-12, methyl ((1S)-1-(((2S)-2-(4-(4′-(2-((2S)-4,4-difluoro-1-((2S)-2-((methoxycarbonyl)amino)-3-methylbutanoyl)-2-pyrrolidinyl)-1H-imidazol-4-yl)-4-biphenylyl)-1H-imidazol-2-yl)-1-pyrrolidinyl)carbonyl)-2-methylpropyl)carbamate]", "values": [
      {"measurement": "EC50", "result": "1 to 999", "unit": "pM"}
    ]},
    {"smiles": "COC(=O)N[C@H](C(=O)N1CC[C@H](O)[C@H]1c1nc(-c2ccc(-c3ccc(-c4c[nH]c([C@@H]5CCCN5C(=O)[C@@H](NC(=O)OC)C(C)C)n4)cc3)cc2)c[nH]1)C(C)C", "note": "[OL-19, methyl ((1S)-1-(((2R,3S)-3-hydroxy-2-(4-(4′-(2-((2S)-1-((2S)-2-((methoxycarbonyl)amino)-3-methylbutanoyl)-2-pyrrolidinyl)-1H-imidazol-4-yl)-4-biphenylyl)-1H-imidazol-2-yl)-1-pyrrolidinyl)carbonyl)-2-methylpropyl)carbamate]", "values": [
      {"measurement": "EC50", "result": "1 to 999", "unit": "pM"}
    ]},
    {"smiles": "COC(=O)N[C@@H](C)C(=O)N1CC[C@H](O)[C@H]1c1ncc(-c2ccc(-c3ccc(-c4cnc([C@@H]5CCCN5C(=O)[C@H](C)NC(=O)OC)[nH]4)cc3)cc2)[nH]1", "note": "[OL-20, methyl ((1S)-2-((2S)-2-(4-(4′-(2-((2R,3S)-3-hydroxy-1-(N-(methoxycarbonyl)-L-alanyl)-2-pyrrolidinyl)-1H-imidazol-4-yl)-4-biphenylyl)-1H-imidazol-2-yl)-1-pyrrolidinyl)-1-methyl-2-oxoethyl)carbamate]", "values": [
      {"measurement": "EC50", "result": "1000 to 99000", "unit": "pM"}
    ]},
    {"smiles": "COC(=O)N[C@H](C(=O)N1CC[C@@H](O)[C@H]1c1ncc(-c2ccc(-c3ccc(-c4cnc([C@@H]5CCCN5C(=O)[C@@H](NC(=O)OC)C(C)C)[nH]4)cc3)cc2)[nH]1)C(C)C", "note": "[OL-21, methyl ((1S)-1-(((2R)-3-hydroxy-2-(4-(4′-(2-((2S)-1-((2S)-2-((methoxycarbonyl)amino)-3-methylbutanoyl)-2-pyrrolidinyl)-1H-imidazol-4-yl)-4-biphenylyl)-1H-imidazol-2-yl)-1-pyrrolidinyl)carbonyl)-2-methylpropyl)carbamate]", "values": [
      {"measurement": "EC50", "result": "1 to 999", "unit": "pM"}
    ]},
    {"smiles": "COC(=O)N[C@H](C(=O)N1CCC[C@H]1c1ncc(-c2ccc(-c3ccc(-c4cnc([C@@H]5CCCN5C(=O)[C@@H](Nc5ncccn5)C(C)C)[nH]4)cc3)cc2)[nH]1)C(C)C", "note": "[cj-11, methyl ((1S)-2-methyl-1-(((2S)-2-(5-(4′-(2-((2S)-1-(N-2-pyrimidinyl-L-valyl)-2-pyrrolidinyl)-1H-imidazol-5-yl)-4-biphenylyl)-1H-imidazol-2-yl)-1-pyrrolidinyl)carbonyl)propyl)carbamate]", "values": [
      {"measurement": "EC50", "result": "1 to 999", "unit": "pM"}
    ]}
  ]
}
